MIC, logD and pKa data for 16 molecules are collected here from ChEMBL document CHEMBL4808184, “Discovery and Optimization of DNA Gyrase and Topoisomerase IV Inhibitors with Potent Activity against Fluoroquinolone-Resistant Gram-Positive Bacteria” (J Med Chem, 2021).

Converted amounts (≈) assume the structure as drawn.

One data set deals with Staphylococcus aureus. Briefly: microbe, parasite or virus in culture. To be noted: ATCC 49951.
Molecule `C[C@H]1COc2c(N3CC4C[C@H](F)C[C@@H](N)[C@H]4C3)c(F)cc3cc(C(=O)O)c(=O)n1c23` (single isomer, unassigned) came in with an MIC of no more than 0.03 µg/mL.
On the same count and under the same terms, then `C[C@H]1COc2c(N3CC[C@H](N)C3)c(F)cc3cc(C(=O)O)c(=O)n1c23`, with 2 µg/mL (≈ 5.76 µM); and `C[C@H]1CCOc2c(N3CC[C@@H](C4(N)CC4)C3)c(F)cc3cc(C(=O)O)c(=O)n1c23`, with 0.25 µg/mL (≈ 0.623 µM).
Same read-out and setting: then `C[C@H]1COc2c(N3CC[C@@H](C4(N)CC4)C3)c(F)c(N)c3cc(C(=O)O)c(=O)n1c23`, with 0.5 µg/mL (≈ 1.24 µM); and `Cc1c(N2CCC(C3(N)CC3)C2)c(F)cc2c(Cc3noc(=O)[nH]3)cc(=O)n(C3CC3)c12` (stereo not drawn), with 4 µg/mL (≈ 9.1 µM).
The same measure, in the same setting: then `C[C@H]1COc2c(N3CCC(=C(Cl)CN)CC3)c(F)cc3cc(C(=O)O)c(=O)n1c23`, with 4 µg/mL (≈ 9.48 µM); and `C[C@H]1COc2c(N3C[C@@H]4CCCN[C@@H]4C3)c(F)cc3cc(C(=O)O)c(=O)n1c23`, with 1 µg/mL (≈ 2.58 µM).
Molecule `Cc1c(N2CCC(C3(N)CC3)C2)c(F)cc2c(-c3cc(O)no3)cc(=O)n(C3CC3)c12` (stereo not drawn) returned an MIC of 1 µg/mL (≈ 2.36 µM).
The molecule `C[C@H]1COc2c(N3CC4CCC[C@@H](N)[C@H]4C3)c(F)cc3cc(C(=O)O)c(=O)n1c23` (single isomer, unassigned) came in with an MIC of no more than 0.03 µg/mL.
Same read-out and setting: then `C[C@H]1Cc2c(N3CC[C@@H](C4(N)CC4)C3)c(F)cc3cc(C(=O)O)c(=O)n1c23`, with 0.25 µg/mL (≈ 0.673 µM).
Still for that read-out and setting: then `COc1cc2cc(C(=O)O)c(=O)n3c2c(c1N1CC[C@@H](C2(N)CC2)C1)OC[C@@H]3C`, with 32 µg/mL (≈ 80.1 µM); and `Cc1c(N2CC[C@@H](C3(N)CC3)C2)c(F)cc2cc(-c3noc(=O)[nH]3)c(=O)n(C3CC3)c12`, with 0.125 µg/mL (≈ 0.294 µM); and `C[C@H]1COc2c(N3CCN(C)CC3)c(F)cc3cc(C(=O)O)c(=O)n1c23`, with 16 µg/mL (≈ 44.3 µM).
Take `Cc1c(N2CCC(C3(N)CC3)C2)c(F)cc2c(Cc3cc(O)no3)cc(=O)n(C3CC3)c12` (stereo not drawn): the MIC turned out to be 8 µg/mL (≈ 18.2 µM).
On the same count and under the same terms, then `C[C@H]1COc2c(N3CC[C@@H](C4(N)CC4)C3)c(F)c(C#N)c3cc(C(=O)O)c(=O)n1c23`, with 0.125 µg/mL (≈ 0.303 µM).
The molecule `Cc1c(N2CC[C@@H](C3(N)CC3)C2)c(F)cc2cc(C#N)c(=O)n(C3CC3)c12` showed an MIC of 0.06 µg/mL (≈ 0.164 µM).

System in the next data set: not listed separately
Briefly: physchem. To be noted: octanol/water, pH 7.4.
In the case of `C[C@H]1COc2c(N3CC4C[C@H](F)C[C@@H](N)[C@H]4C3)c(F)cc3cc(C(=O)O)c(=O)n1c23` (single isomer, unassigned), the logD was -1.04.
Molecule `C[C@H]1COc2c(N3CC[C@H](N)C3)c(F)cc3cc(C(=O)O)c(=O)n1c23` came in with a logD of less than -2.
On the same count and under the same terms, then `C[C@H]1CCOc2c(N3CC[C@@H](C4(N)CC4)C3)c(F)cc3cc(C(=O)O)c(=O)n1c23`, with 0.01; and `C[C@H]1COc2c(N3CC[C@@H](C4(N)CC4)C3)c(F)c(N)c3cc(C(=O)O)c(=O)n1c23`, with -0.97.
With `Cc1c(N2CCC(C3(N)CC3)C2)c(F)cc2c(Cc3noc(=O)[nH]3)cc(=O)n(C3CC3)c12` (stereo not drawn), the logD is -0.74.
On the same count and under the same terms, next, `C[C@H]1COc2c(N3CCC(=C(Cl)CN)CC3)c(F)cc3cc(C(=O)O)c(=O)n1c23`: -0.39; `C[C@H]1COc2c(N3C[C@@H]4CCCN[C@@H]4C3)c(F)cc3cc(C(=O)O)c(=O)n1c23`: -1.46.
On to `Cc1c(N2CCC(C3(N)CC3)C2)c(F)cc2c(-c3cc(O)no3)cc(=O)n(C3CC3)c12` (stereo not drawn), for which the logD was 0.29.
`C[C@H]1COc2c(N3CC4CCC[C@@H](N)[C@H]4C3)c(F)cc3cc(C(=O)O)c(=O)n1c23` (single isomer, unassigned) showed a logD of -0.68.
As to `C[C@H]1Cc2c(N3CC[C@@H](C4(N)CC4)C3)c(F)cc3cc(C(=O)O)c(=O)n1c23`, the log distribution coefficient (logD) is -0.51.
As for `COc1cc2cc(C(=O)O)c(=O)n3c2c(c1N1CC[C@@H](C2(N)CC2)C1)OC[C@@H]3C`, the logD was -1.22.
Molecule `Cc1c(N2CC[C@@H](C3(N)CC3)C2)c(F)cc2cc(-c3noc(=O)[nH]3)c(=O)n(C3CC3)c12` registered a logD of -0.32.
On to `C[C@H]1COc2c(N3CCN(C)CC3)c(F)cc3cc(C(=O)O)c(=O)n1c23`, for which the logD was -1.99.
Still for that read-out and setting: next, `Cc1c(N2CCC(C3(N)CC3)C2)c(F)cc2c(Cc3cc(O)no3)cc(=O)n(C3CC3)c12` (stereo not drawn): -0.9; `C[C@H]1COc2c(N3CC[C@@H](C4(N)CC4)C3)c(F)c(C#N)c3cc(C(=O)O)c(=O)n1c23`: -1.86.
In the case of `Cc1c(N2CC[C@@H](C3(N)CC3)C2)c(F)cc2cc(C#N)c(=O)n(C3CC3)c12`, the logD came out at 1.19.

System in the next data set: not listed separately
Kind of data set: physchem.
Conditions: not given
The molecule `C[C@H]1COc2c(N3CC4C[C@H](F)C[C@@H](N)[C@H]4C3)c(F)cc3cc(C(=O)O)c(=O)n1c23` (single isomer, unassigned) came in with a pKa of 5.07.
The same measure, in the same setting: then `C[C@H]1COc2c(N3CC[C@H](N)C3)c(F)cc3cc(C(=O)O)c(=O)n1c23`, with 4.8.
On to `Cc1c(N2CCC(C3(N)CC3)C2)c(F)cc2c(Cc3noc(=O)[nH]3)cc(=O)n(C3CC3)c12` (stereo not drawn), for which the pKa stood at 5.1.
In turn, `C[C@H]1COc2c(N3C[C@@H]4CCCN[C@@H]4C3)c(F)cc3cc(C(=O)O)c(=O)n1c23` gave a pKa of 5.
On the same count and under the same terms, next, `Cc1c(N2CCC(C3(N)CC3)C2)c(F)cc2c(-c3cc(O)no3)cc(=O)n(C3CC3)c12` (stereo not drawn): 4.7.
As to `C[C@H]1COc2c(N3CC4CCC[C@@H](N)[C@H]4C3)c(F)cc3cc(C(=O)O)c(=O)n1c23` (single isomer, unassigned), the pKa came to 5.2.
The same measure, in the same setting: then `Cc1c(N2CC[C@@H](C3(N)CC3)C2)c(F)cc2cc(-c3noc(=O)[nH]3)c(=O)n(C3CC3)c12`, with 5.4; and `C[C@H]1COc2c(N3CCN(C)CC3)c(F)cc3cc(C(=O)O)c(=O)n1c23`, with 4.5; and `Cc1c(N2CCC(C3(N)CC3)C2)c(F)cc2c(Cc3cc(O)no3)cc(=O)n(C3CC3)c12` (stereo not drawn), with 3.9.
Same read-out and setting: then `Cc1c(N2CC[C@@H](C3(N)CC3)C2)c(F)cc2cc(C#N)c(=O)n(C3CC3)c12`, with 8.4.

The subject of another data set is Staphylococcus aureus. Briefly: microbe, parasite or virus in culture. The note with it: ATCC 49951. This is another data set of the same source.
On to `C[C@H]1COc2c(N3CC4C[C@H](F)C[C@@H](N)[C@H]4C3)c(F)cc3cc(C(=O)O)c(=O)n1c23` (single isomer, unassigned), for which the MIC is 0.06 µg/mL (≈ 0.143 µM).
As for `C[C@H]1COc2c(N3CC[C@H](N)C3)c(F)cc3cc(C(=O)O)c(=O)n1c23`, the MIC is greater than 32 µg/mL.
Same read-out and setting: then `C[C@H]1CCOc2c(N3CC[C@@H](C4(N)CC4)C3)c(F)cc3cc(C(=O)O)c(=O)n1c23`, with 8 µg/mL (≈ 19.9 µM); and `C[C@H]1COc2c(N3CC[C@@H](C4(N)CC4)C3)c(F)c(N)c3cc(C(=O)O)c(=O)n1c23`, with 8 µg/mL (≈ 19.9 µM); and `Cc1c(N2CCC(C3(N)CC3)C2)c(F)cc2c(Cc3noc(=O)[nH]3)cc(=O)n(C3CC3)c12` (stereo not drawn), with 32 µg/mL (≈ 72.8 µM).
Same read-out and setting: next, `C[C@H]1COc2c(N3CCC(=C(Cl)CN)CC3)c(F)cc3cc(C(=O)O)c(=O)n1c23`: greater than 32 µg/mL.
The same measure, in the same setting: next, `C[C@H]1COc2c(N3C[C@@H]4CCCN[C@@H]4C3)c(F)cc3cc(C(=O)O)c(=O)n1c23`: 32 µg/mL (≈ 82.6 µM); `Cc1c(N2CCC(C3(N)CC3)C2)c(F)cc2c(-c3cc(O)no3)cc(=O)n(C3CC3)c12` (stereo not drawn): 2 µg/mL (≈ 4.71 µM).
On to `C[C@H]1COc2c(N3CC4CCC[C@@H](N)[C@H]4C3)c(F)cc3cc(C(=O)O)c(=O)n1c23` (single isomer, unassigned), for which the MIC came out at 0.25 µg/mL (≈ 0.623 µM).
Take `C[C@H]1Cc2c(N3CC[C@@H](C4(N)CC4)C3)c(F)cc3cc(C(=O)O)c(=O)n1c23`: the MIC is 8 µg/mL (≈ 21.5 µM).
Same read-out and setting: then `COc1cc2cc(C(=O)O)c(=O)n3c2c(c1N1CC[C@@H](C2(N)CC2)C1)OC[C@@H]3C`, with greater than 32 µg/mL; and `Cc1c(N2CC[C@@H](C3(N)CC3)C2)c(F)cc2cc(-c3noc(=O)[nH]3)c(=O)n(C3CC3)c12`, with 0.125 µg/mL (≈ 0.294 µM); and `C[C@H]1COc2c(N3CCN(C)CC3)c(F)cc3cc(C(=O)O)c(=O)n1c23`, with greater than 32 µg/mL.
The same measure, in the same setting: then `Cc1c(N2CCC(C3(N)CC3)C2)c(F)cc2c(Cc3cc(O)no3)cc(=O)n(C3CC3)c12` (stereo not drawn), with 8 µg/mL (≈ 18.2 µM); and `C[C@H]1COc2c(N3CC[C@@H](C4(N)CC4)C3)c(F)c(C#N)c3cc(C(=O)O)c(=O)n1c23`, with 1 µg/mL (≈ 2.42 µM).
The same measure, in the same setting: next, `Cc1c(N2CC[C@@H](C3(N)CC3)C2)c(F)cc2cc(C#N)c(=O)n(C3CC3)c12`: 0.06 µg/mL (≈ 0.164 µM).
